“And” between values parts separate entries of the source, which are not always exact repeats. Identical values can stand only once. Like-named read-outs stand apart in the source and are kept apart here.
Experiments:
Format in all cases: cell-based
GluN1/GluN2A NMDARs = GluN1/GluN2A NMDARs (Rattus norvegicus, UniProt P35439+Q00959); assay: Two-electrode voltage-clamp recordings, Xenopus laevis oocytes expressing GluN1/GluN2A; conditions: for IC50: glutamate/glycine 100/30 µM; for EC50: read-out: EC50 (µM) [conf. int.]; for Emax: read-out: Maximal Degree of Modulation (% of control)
Description: (§1) cDNAs for rat wild type NMDAR subunits GluN1-1a (GenBank U11418, U08261; hereafter GluN1 or GluN1a), GluN1-1b (U08263, hereafter GluN1b), GluN2A (D13211), GluN2B (U11419), GluN2C (M91563), and GluN2D (L31611, modified as described in [Monyer et al., 1994]) were provided by Drs. S. Heinemann (Salk Institute), S. Nakanishi (Kyoto University), and P. Seeburg (University of Heidelberg). Site-directed mutagenesis was conducted using the QuikChange kit (Agilent Technologies, Santa Clara, CA) following the recommended protocol. DNA sequencing was used to verify all mutations. The amino acid numbering system started with the initiating methionine as residue number one. For expression in Xenopus laevis oocytes, cDNA constructs were linearized by restriction enzymes, and subsequently used to synthesize in vitro cRNAs following the manufacturer’s protocol (mMessage mMachine, Ambion, ThermoFisher Scientific, Waltham, MA).
(§2) Xenopus laevis stage VI oocytes (Ecocyte Biosciences, Austin, TX) were injected as previously described ([Hansen et al., 2013]) 2–7 days prior to recording with cRNA encoding the NMDAR subunits and stored at 15°C in media containing (in mM) 88 NaCl, 2.4 NaHCO3, 1 KCl, 0.33 Ca(NO3)2, 0.41 CaCl2, 0.82 MgSO4, 5 Tris-HCl; pH was adjusted to 7.4 with NaOH and the solution supplemented with 1 U/mL penicillin, 0.1 mg/mL gentamicin sulfate, and 1 μg/mL streptomycin. Two-electrode voltage-clamp recordings were performed at room temperature (21–23°C) using different internal solutions for voltage and current electrodes (0.3 M and 3.0 M KCl, respectively). All extracellular solutions were made from a solution containing (in mM) 90 NaCl, 1 KCl, 10 HEPES, 0.5 BaCl2, 0.01 EDTA (pH 7.4 with NaOH). Experiments were performed using an eight port Modular Valve Positioner (Hamilton Company, Reno, NV) and controlled by custom software (Easy Oocyte, Emory University, Atlanta, GA)to exchange solutions. Oocyte currents were recorded at a holding potential of −40 mV using a two-electrode voltage-clamp amplifier (OC-725B or OC-725C, Warner Instruments, Hamden, CT). […] In MTSEA experiments, fresh MTSEA solutions (0.2 mM) were prepared and utilized in less than 30 min to limit compound degradation.
(§3) Measurements are given as mean ± SEM unless otherwise indicated. The number of replicate experiments used was chosen to ensure a power level of at least 0.80 when α = 0.05 and when detecting appropriate effect sizes. EC50 and IC50 values and confidence intervals reported were calculated by averaging the log(EC50) or log(IC50) value, determining confidence intervals for mean log(EC50) or log(IC50), and converting back to units of molarity. Statistical significance evaluations (α set to 0.05) were performed using a one-way ANOVA with Dunnett’s multiple comparison test, a paired t–test, or other appropriate tests as described.

GluN1/GluN2B NMDARs = GluN1/GluN2B NMDARs (Rattus norvegicus, UniProt P35439+Q00960); assay: Two-electrode voltage-clamp recordings, Xenopus laevis oocytes expressing GluN1/GluN2B; conditions: for EC50: read-out: EC50 (µM) [conf. int.]; for Emax: read-out: Maximal Degree of Modulation (% of control)
Sequence of GluN1/GluN2B NMDARs (Q00960 27-1482, other chains not shown): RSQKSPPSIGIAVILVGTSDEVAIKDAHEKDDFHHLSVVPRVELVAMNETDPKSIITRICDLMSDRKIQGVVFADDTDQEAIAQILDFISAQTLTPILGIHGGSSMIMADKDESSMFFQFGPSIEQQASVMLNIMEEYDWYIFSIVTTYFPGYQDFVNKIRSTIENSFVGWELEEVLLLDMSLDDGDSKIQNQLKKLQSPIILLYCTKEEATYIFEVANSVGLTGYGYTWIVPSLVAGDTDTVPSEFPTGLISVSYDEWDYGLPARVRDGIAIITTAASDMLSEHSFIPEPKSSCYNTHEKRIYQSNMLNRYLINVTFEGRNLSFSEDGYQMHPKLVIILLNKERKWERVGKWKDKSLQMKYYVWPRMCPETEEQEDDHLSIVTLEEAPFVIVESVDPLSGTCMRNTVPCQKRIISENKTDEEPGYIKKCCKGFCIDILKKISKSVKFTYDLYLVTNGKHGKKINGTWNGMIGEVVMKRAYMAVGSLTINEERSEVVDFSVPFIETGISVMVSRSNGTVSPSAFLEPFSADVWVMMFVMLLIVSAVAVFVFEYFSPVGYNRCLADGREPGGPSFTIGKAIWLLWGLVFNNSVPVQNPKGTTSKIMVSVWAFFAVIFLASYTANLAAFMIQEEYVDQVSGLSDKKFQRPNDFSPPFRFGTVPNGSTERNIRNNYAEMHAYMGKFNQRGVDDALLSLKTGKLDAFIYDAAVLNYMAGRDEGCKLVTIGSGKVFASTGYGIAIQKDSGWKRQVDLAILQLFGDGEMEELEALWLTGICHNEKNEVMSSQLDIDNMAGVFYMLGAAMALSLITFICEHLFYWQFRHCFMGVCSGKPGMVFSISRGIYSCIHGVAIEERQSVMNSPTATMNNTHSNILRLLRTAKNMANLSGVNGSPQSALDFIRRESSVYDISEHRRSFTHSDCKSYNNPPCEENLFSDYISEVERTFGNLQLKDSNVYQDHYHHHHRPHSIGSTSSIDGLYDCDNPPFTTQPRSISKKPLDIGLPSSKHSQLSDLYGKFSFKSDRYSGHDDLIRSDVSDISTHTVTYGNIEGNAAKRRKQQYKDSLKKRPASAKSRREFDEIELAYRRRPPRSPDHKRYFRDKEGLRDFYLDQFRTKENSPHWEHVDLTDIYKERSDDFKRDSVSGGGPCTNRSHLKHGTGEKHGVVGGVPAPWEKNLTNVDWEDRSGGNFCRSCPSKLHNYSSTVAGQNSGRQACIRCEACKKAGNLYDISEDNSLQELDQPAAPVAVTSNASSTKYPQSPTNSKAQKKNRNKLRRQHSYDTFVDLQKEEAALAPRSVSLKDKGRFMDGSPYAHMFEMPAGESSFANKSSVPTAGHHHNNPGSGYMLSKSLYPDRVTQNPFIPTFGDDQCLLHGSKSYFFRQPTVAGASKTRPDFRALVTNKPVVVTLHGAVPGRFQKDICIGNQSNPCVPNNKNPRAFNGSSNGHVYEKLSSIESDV
Description: as §1, §2, §3

GluN1/GluN2C NMDARs = GluN1/GluN2C NMDARs (Rattus norvegicus, UniProt P35439+Q00961); assay: Two-electrode voltage-clamp recordings, Xenopus laevis oocytes expressing GluN1/GluN2C; conditions: for Modulation by 10 µM (% of control): 10 µM modulator; for IC50: glutamate/glycine 100/30 µM; for EC50: read-out: EC50 (µM) [conf. int.]; for Emax: read-out: Maximal Degree of Modulation (% of control)
Sequence of GluN1/GluN2C NMDARs (Q00961 20-1237, other chains not shown): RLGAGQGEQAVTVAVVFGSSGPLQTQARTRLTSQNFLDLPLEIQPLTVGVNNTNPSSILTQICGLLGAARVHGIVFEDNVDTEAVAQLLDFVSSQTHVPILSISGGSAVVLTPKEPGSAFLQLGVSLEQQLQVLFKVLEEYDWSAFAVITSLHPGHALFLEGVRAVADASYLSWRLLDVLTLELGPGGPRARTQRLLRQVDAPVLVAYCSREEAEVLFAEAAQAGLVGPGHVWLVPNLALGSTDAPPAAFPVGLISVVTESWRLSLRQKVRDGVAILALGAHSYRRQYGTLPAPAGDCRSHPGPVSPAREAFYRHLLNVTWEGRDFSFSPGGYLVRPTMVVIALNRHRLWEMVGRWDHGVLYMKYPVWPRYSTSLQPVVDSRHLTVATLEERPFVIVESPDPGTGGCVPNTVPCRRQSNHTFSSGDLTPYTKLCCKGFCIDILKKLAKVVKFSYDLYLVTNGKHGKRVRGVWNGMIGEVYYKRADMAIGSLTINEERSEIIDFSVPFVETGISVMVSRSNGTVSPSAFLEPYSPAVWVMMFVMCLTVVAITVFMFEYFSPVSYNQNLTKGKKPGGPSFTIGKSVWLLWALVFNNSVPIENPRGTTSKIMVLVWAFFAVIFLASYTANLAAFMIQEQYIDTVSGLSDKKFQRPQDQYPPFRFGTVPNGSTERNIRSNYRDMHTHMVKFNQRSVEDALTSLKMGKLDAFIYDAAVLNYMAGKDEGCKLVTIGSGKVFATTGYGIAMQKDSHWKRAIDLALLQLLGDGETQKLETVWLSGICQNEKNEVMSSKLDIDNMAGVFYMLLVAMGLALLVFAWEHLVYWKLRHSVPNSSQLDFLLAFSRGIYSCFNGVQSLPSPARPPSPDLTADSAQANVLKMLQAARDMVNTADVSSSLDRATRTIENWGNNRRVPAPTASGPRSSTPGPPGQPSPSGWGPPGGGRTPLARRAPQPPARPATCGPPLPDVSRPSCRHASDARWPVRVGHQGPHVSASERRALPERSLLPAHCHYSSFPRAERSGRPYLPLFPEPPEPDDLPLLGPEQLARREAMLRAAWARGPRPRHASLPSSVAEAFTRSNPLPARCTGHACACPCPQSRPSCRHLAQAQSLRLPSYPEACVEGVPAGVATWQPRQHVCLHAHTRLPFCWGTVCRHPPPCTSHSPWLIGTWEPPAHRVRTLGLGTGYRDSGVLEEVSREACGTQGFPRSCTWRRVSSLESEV
Description: as §1, §2, §3

GluN1/GluN2D NMDARs = GluN1/GluN2D NMDARs (Rattus norvegicus, UniProt P35439+Q62645); assay: Whole cell patch-clamp recordings, HEK293 cells expressing GluN1/GluN2D
Sequence of GluN1/GluN2D NMDARs (Q62645 28-1323, other chains not shown): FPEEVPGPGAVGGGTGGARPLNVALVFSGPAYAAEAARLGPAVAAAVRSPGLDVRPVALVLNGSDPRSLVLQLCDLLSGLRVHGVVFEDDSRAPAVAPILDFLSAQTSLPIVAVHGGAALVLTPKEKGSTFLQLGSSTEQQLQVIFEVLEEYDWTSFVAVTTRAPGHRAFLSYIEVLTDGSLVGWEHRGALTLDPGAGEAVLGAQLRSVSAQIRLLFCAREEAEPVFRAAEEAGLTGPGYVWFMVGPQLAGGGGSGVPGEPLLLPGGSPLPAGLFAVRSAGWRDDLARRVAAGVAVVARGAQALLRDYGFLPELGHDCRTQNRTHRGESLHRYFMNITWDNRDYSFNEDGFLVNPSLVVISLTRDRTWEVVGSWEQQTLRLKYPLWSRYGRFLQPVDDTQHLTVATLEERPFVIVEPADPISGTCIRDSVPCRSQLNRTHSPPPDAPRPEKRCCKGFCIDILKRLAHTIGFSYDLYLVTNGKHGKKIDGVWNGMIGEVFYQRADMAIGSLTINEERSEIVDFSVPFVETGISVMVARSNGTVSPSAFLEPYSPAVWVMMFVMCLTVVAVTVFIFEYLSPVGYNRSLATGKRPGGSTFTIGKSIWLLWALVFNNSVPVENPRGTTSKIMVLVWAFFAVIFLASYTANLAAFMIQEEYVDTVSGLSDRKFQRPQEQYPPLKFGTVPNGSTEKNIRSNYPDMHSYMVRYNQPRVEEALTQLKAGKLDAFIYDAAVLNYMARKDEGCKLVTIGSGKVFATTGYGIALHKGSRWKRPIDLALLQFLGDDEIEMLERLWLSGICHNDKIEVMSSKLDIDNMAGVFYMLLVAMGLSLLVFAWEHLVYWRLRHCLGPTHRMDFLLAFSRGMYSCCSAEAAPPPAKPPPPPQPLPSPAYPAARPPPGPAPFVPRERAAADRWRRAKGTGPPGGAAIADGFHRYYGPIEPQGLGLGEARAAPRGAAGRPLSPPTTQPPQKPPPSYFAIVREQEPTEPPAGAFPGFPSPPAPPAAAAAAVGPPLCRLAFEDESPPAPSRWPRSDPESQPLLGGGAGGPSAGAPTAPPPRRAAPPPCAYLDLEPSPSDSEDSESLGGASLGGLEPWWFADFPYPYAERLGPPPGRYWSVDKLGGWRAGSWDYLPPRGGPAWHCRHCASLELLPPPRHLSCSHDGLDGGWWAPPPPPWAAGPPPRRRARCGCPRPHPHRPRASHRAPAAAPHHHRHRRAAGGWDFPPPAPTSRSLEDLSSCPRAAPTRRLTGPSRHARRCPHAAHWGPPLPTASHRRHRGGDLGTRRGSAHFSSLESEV
Description: We studied NMDARs expressed in HEK293 cells to investigate the time course of modulator action. […] These modulators were tested on GluN1/GluN2A and GluN1/GluN2D to see whether there were differences in modulation given the distinct properties of these NMDAR subtypes. […] The time-course of modulator binding of EU1794-2, EU1794-4 and EU1794-27 was also determined for GluN1/GluN2A (Figure 4C,D).
as §1
HEK293 cells (CRL-1573, ATCC, Manassas, VA) were maintained in a tissue culture room solely reserved for their culturing and transfected using a CaPO4 protocol to express the diheteromeric NMDARs as previously described ([Hansen et al., 2013]). Cell lines were obtained directly from the supplier, were expanded, frozen and kept in liquid nitrogen in a dewar. Mycoplasma testing was not performed. cDNA ratios for transfection were 1:1:1 (GluN2D) or 1:1:5 (GluN2A) for GluN1:GluN2:GFP.

[1] = +EU1794-27 3 µM, read-out: EU1794-2 IC50 (µM) [conf. int.]
[2] = +EU1794-27 10 µM, read-out: EU1794-2 IC50 (µM) [conf. int.]
[3] = +EU1794-27 20 µM, read-out: EU1794-2 IC50 (µM) [conf. int.]
[4] = no second modulator (+EU1794-27 0 µM), read-out: IC50 (µM) [conf. int.]
[5] = saturating glutamate/glycine 100/30 µM, mean [95% CI], - = not fit, response at 30 µM differed by no more than 15% from control
[6] = saturating glutamate/glycine 100/30 µM, mean ± SEM
[7] = sub-saturating glutamate/glycine 0.6/0.2 µM

- IC50 (GluN1/GluN2A NMDARs; [1]): 2.5 µM
- IC50 (GluN1/GluN2A NMDARs; [2]): 3.6 µM
- IC50 (GluN1/GluN2A NMDARs; [3]): 8 µM
- IC50 (GluN1/GluN2A NMDARs; [4]): 0.6 µM
- EC50 (GluN1/GluN2A NMDARs; [5]): 0.6 µM
- Emax (GluN1/GluN2A NMDARs; [6]): 6%
- EC50 (GluN1/GluN2A NMDARs; [7]): 1.8 µM
- Emax (GluN1/GluN2A NMDARs; [7]): 37%
- IC50 (GluN1/GluN2B NMDARs; +EU1794-27 10 µM, glutamate/glycine 100/30 µM, read-out: EU1794-2 IC50 (µM) [conf. int.]): 3.5 µM
- IC50 (GluN1/GluN2B NMDARs; +EU1794-27 20 µM, glutamate/glycine 100/30 µM, read-out: EU1794-2 IC50 (µM) [conf. int.]): 12 µM
- IC50 (GluN1/GluN2B NMDARs; read-out: IC50 (µM) [conf. int.]): 1.2 µM
- EC50 (GluN1/GluN2B NMDARs; [5]): 1.2 µM
- Emax (GluN1/GluN2B NMDARs; [6]): 10%
- EC50 (GluN1/GluN2B NMDARs; [7]): 1.4 µM
- Emax (GluN1/GluN2B NMDARs; [7]): 28%
- Modulation by 10 µM (% of control) (GluN1/GluN2C NMDARs; Glu/Gly 0.6/0.2 µM (sub-saturating)): 43 ± 2.1 % of control
- Modulation by 10 µM (% of control) (GluN1/GluN2C NMDARs; Glu/Gly 100/30 µM): 16 ± 1.0 % of control
- IC50 (GluN1/GluN2C NMDARs; [1]): 1.2 µM
- IC50 (GluN1/GluN2C NMDARs; [2]): 2.4 µM
- IC50 (GluN1/GluN2C NMDARs; [3]): 6 µM
- IC50 (GluN1/GluN2C NMDARs; [4]): 0.21 µM
- EC50 (GluN1/GluN2C NMDARs; saturating glutamate/glycine 100/30 µM, mean [95% CI]): 0.26 µM
- Emax (GluN1/GluN2C NMDARs; [6]): 14%
- EC50 (GluN1/GluN2C NMDARs; [7]): 0.72 µM
- Emax (GluN1/GluN2C NMDARs; [7]): 41%
- kon (GluN1/GluN2D NMDARs; HEK293, read-out: association rate kon): 430000 M⁻¹ s⁻¹
- koff (GluN1/GluN2D NMDARs; HEK293, read-out: dissociation rate koff): 0.495 s⁻¹
- Kd (GluN1/GluN2D NMDARs; calculated from association and dissociation rates, HEK cells, read-out: kinetically-determined affinity constant Kd): 1100 nM and 1140 nM
Structure (SMILES): CCOC(=O)c1c(NC(=O)CC2SC(=N)NC2=O)sc2c1CCC(C)C2 (stereo not shown) [EU1794-2, ethyl 2-(2-(2-imino-4-oxothiazolidin-5-yl)acetamido)-6-methyl-4,5,6,7-tetrahydrobenzo[b]thiophene-3-carboxylate]

From PMC5967867, “An NMDAR positive and negative allosteric modulator series share a binding site and are interconverted by methyl groups” (eLife, 2018)
